Article PMC9530166, “Allosteric regulation of glycogen breakdown by the second messenger cyclic di-GMP” (Nature Communications, 2022)
Entries after “also recorded” stand apart in the source; their conditions may differ.

Key:
His6-Vnz25270 = assay: nanoDSF thermal shift assay, GlgX paralog Vnz25270; format: binding, Streptomyces venezuelae; conditions: 10 µM His6-Vnz25270, 1 mM c-di-GMP
Protocol: (§1) For label-free thermal shift assay experiments, 10 μM purified protein in 25 mM Tris pH 8, 150 mM NaCl, 2.5% (v/v) glycerol, and 5 mM MgCl2 was incubated without or with (1 mM) of nonlabeled c-di-GMP or c-di-AMP, respectively, at rt for 10 min. Reactions were subsequently analyzed in a Tycho NT.6 (NanoTemper Technologies) device with a 30 K/min thermal ramp and the internal fluorescence at 330 and 350 nm was recorded. Data analysis and calculation of derivatives was done using the internal evaluation features of the Tycho instrument.
(a) 15 µg of purified E. coli His6-GlgX
167 or His6-Vnz25270, respectively, were mixed with 0.5 µl of [32P]-c-di-GMP (Hartmann Analytic
168 GmbH, Braunschweig) in binding buffer (25 mM Tris pH 8.0, 150 mM NaCl, 2.5% (v/v) glycerol
169 and 5 mM MgCl2). 10 µL of the reactions were spotted on the same nitrocellulose membrane (Roth),
170 air dried for 10 min and analyzed by phosphorimaging. (b, c) 10 µM purified His6-Vnz25270 (b) or
171 His6-GlgXE.coli (c) in 25 mM Tris pH 8.0, 150 mM NaCl, 2.5% (v/v) glycerol and 5 mM MgCl2 were
172 incubated without or with (1 mM) c-di-GMP. Reactions were analyzed in a Tycho NT.6
173 (NanoTemper Technologies) device.
(1 picture or pasted object on this page, not shown here)

His6-GlgXD342A+E378A = assay: BCA reducing-end enzyme assay, GlgXD342A+E378A; format: biochemical, Streptomyces venezuelae; conditions: 50 µM c-di-GMP, 0.05% glycogen from rabbit, 1 µM enzyme
Protocol: (§2) Fig. 2 c-di-GMP stimulates glycogen breakdown activity of GlgX in vitro. a Bicinchoninic acid (BCA) in vitro enzyme assay. The purple copper bicinchoninate complex indicating GlgX-mediated generation of reducing ends in glycogen was quantified by photometric measurements at 562 nm. A562 values were converted into reducing ends [µM glucose equivalents] based on D-glucose as a standard. Reactions contained 0.05% (w/v) glycogen from rabbit, 1 µM GlgX and increasing concentrations of c-di-GMP (0–100 µM). Source data are provided as a Source data file. b BCA assay containing 0.05% of either glycogen from rabbit, pullulan, amylopectin from maize or amylose from potato as substrates. Where appropriate, 1 µM GlgX or 50 µM c-di-GMP were added to the reaction samples. Source data are provided as a Source data file. c BCA assay as in a with or without c-di-GMP (50 µM), 0.05% glycogen from rabbit (S) and 1 µM Vnz25270, GlgX, the active site mutants GlgXD342A, GlgXE378A, GlgXD342A+E378A, or the c-di-GMP-binding mutant variant GlgXDETR49-52 as indicated. […]
(§3) Hydrolysis of carbohydrates was assessed in vitro by measuring the accumulation of reducing sugar ends using the BCA assay[42] and D-glucose as a standard for calibration (Supplementary Fig. 11). […] 125 μl sample aliquots were transferred in duplicates to a 96 well plate and the absorbance at 562 nm was measured using a plate reader.

His6-GlgXDETR49-52 = assay: BCA reducing-end enzyme assay, GlgXDETR49-52; format: biochemical, Streptomyces venezuelae; conditions: 50 µM c-di-GMP, 0.05% glycogen from rabbit, 1 µM enzyme
Protocol: as §2, §3

His6-GlgXDETR(49-52) = assay: nanoDSF thermal shift assay, RETD49-52 swap mutant; format: binding, Streptomyces venezuelae; conditions: His6-GlgXDETR(49-52) mutant
Protocol: Arginine and aspartic acid arranged in an RxxD motif are often found as c-di-GMP binding signatures in effector proteins[28],[34]. […] To determine if either of these motifs are involved in c-di-GMP binding, we swapped the arginine and aspartic acid residues in the two motifs and purified His6-GlgXDETR(49-52) and His6-GlgXDLVR(212-215).
as §1
217 Supplementary Fig. 5: NanoDSF assays with mutagenized His6-GlgX variants. (a) Swap of the
219 This was confirmed by DRaCALA, right. For DRaCALA assays, 15 µg of purified E. coli His6-GlgX
220 or His6-Vnz25270, respectively, were mixed with 0.5 µl of [32P]-c-di-GMP (Hartmann Analytic
221 GmbH, Braunschweig) in binding buffer (25 mM Tris pH 8.0, 150 mM NaCl, 2.5% (v/v) glycerol
222 and 5 mM MgCl2). […]
223 air dried for 10 min and analyzed by phosphorimaging. […]

## Nc1nc2c(ncn2[C@@H]2O[C@@H]3CO[P@](=O)(O)O[C@H]4[C@@H](O)[C@H](n5cnc6c(=O)[nH]c(N)nc65)O[C@@H]4CO[P@](=O)(O)O[C@H]3[C@H]2O)c(=O)[nH]1 [c-di-GMP, bis-(3′−5′)-cyclic diguanosine monophosphate]
His6-Vnz25270
  interaction with c-di-GMP by nanoDSF: did not detect any interactions
His6-GlgXD342A+E378A
  stimulation of enzyme activity by c-di-GMP: could not be stimulated
His6-GlgXDETR49-52
  effect of c-di-GMP on hydrolytic activity: remained at basal levels
His6-GlgXDETR(49-52)
  effect of c-di-GMP in nanoDSF: abolishes c-di-GMP binding; also recorded: no effect
